Reference: patent publication US5550161A, “Substituted orally effective ION chelators related to deferoxamine” (Oral-D, priority 1993, dated 1996)
Like-named read-outs stand apart in the source and are kept apart here.

How the values were obtained:
[1] = Iron excretion (urine and stool) by hypertransfused iron-overloaded rats; assay type: in vivo, Sprague-Dawley rats; details: for circulation time relative to DFO: intraperitoneal, inferred from increased urinary iron excretion; for Iron excreted, GROSS Stool / Iron excreted, GROSS Urine / Iron excreted, GROSS Stool, per μmole / Iron excreted, GROSS Urine, per μmole / Iron excreted, NET Stool, per μmole / Iron excreted, NET TOTAL, per μmole / Iron excreted, NET Urine, per μmole / Iron excreted, NET Stool / Iron excreted, NET Urine: 100 mg/kg; for Iron excreted, GROSS Stool, per μmole / Iron excreted, GROSS Urine, per μmole / Iron excreted, NET Stool, per μmole / Iron excreted, NET TOTAL, per μmole / Iron excreted, NET Urine, per μmole: normalized to molar dose; for absorption and cleavage after oral administration: inferred from net iron excretion; for Iron excreted, NET Stool / Iron excreted, NET Urine: gross minus background
Experimental: In this model, heat-damaged rat erythrocytes are transfused intraperitoneally (i.p.) on a daily basis.
Deferoxamine mesylate (DFO:Desferal) was obtained from the Ciba Pharmaceutical Company (Summit, N.J.) as a lyophilized powder. For administration to the hypertransfused rats, it was dissolved in physiological saline at a concentration of 10 mg/ml.
A homogeneous solution of acylated derivative was obtained by dissolving the drugs in propylene glycol at a concentration of 30 mg/ml.
Sprague-Dawley rats (60-80 g; Taconic Farms, Germantown, N.Y. (were iron overloaded via daily (5 days/week) intraperitoneal injections of heat-damaged rat erythrocytes. The red blood cells for infusion were purchased from Hilltop Lab Animals, Inc. (Scottsdale, Pa.). They were obtained from retired breeders, the donor animals being exsanguinated via cardiac puncture under CO2 anesthesia. The blood drawn into acid-citrate-dextrose containing gentamicin sulfate (25 g/ml) and shipped on wet ice by overnight express to the testing laboratory. Upon arrival the blood was stored at 4° C. for up to 7 days. Prior to infusion the red cells were slightly damaged by heating at 50° C. for 15 minutes.
The animals were placed on a low iron diet (>10 μg of Fe/g) for one week prior to screening. […] During screening the animals were placed in individual metabolic cages and urine and stool were collected daily. The daily transfusion of heat-damaged red cells was continued throughout drug testing and during intervals of rest between drug evaluations. The compounds were administered either by gavage (orally) or by intraperitoneal injection 4 to 8 hours after the animals were transfused. The dose of each drug was 100 mg/kg/day for 5 days. Urine and stool samples were collected approximately 24 hours after drug administration. They were placed in crucibles, dried at 110° C. and then ashed at 550° C. overnight. Following dissolution of the ash in 3N HCl, the iron content of the samples was determined by atomic absorption spectroscopy.
The iron-overloaded rats were divided into groups of six. Before testing any of the new compounds both positive and negative controls were evaluated. Baseline excretion of iron in the urine and stool of this series of hypertransfused rats was determined in the absence of drug administration (negative control). As a positive control, another group of six animals was given DFO intraperitoneally at a dose of 100 mg/kg (153 micromoles/kg). […] All of the drugs were evaluated both orally and intraperitoneally. The intraperitoneal effect was used to assess bioavailability.
In the prodrugs, where the hydroxamic acid moieties (iron binding sites) of DFO were blocked, effectiveness upon parenteral administration would indicate that the rat is able to metabolize the prodrug to the active species. Failure to be effective orally could then be attributed to lack of absorption. […] In order to obtain an estimate of the relative iron-chelating potency within the series, the amount of iron excreted in response to the acylated derivatives was normalized to correspond to the molar equivalent of 100 mg/kg DFO.

[2] = cited from earlier work
[3] = Intraperitoneal LD50 in Swiss-Webster mice; details: for LD50: mouse, in vivo, ip
[4] = Solubility in water and ordinary organic solvents; assay type: physicochemical; details: in words
[5] = ip, 100 mg/kg, DFO (historic), n=54

With `CCCC(=O)NCCCCCN(OC(=O)CCC)C(=O)CCC(=O)NCCCCCN(OC(=O)CCC)C(=O)CCC(=O)NCCCCCN(OC(=O)CCC)C(C)=O` [BDB3, N-Butyroyl-O,O,O-tributyryl deferoxamine] the “circulation time relative to DFO” value [1] was “circulate for a longer period of time than DFO”, the “Iron excreted, GROSS Stool” value ([1]; ip, acylated derivatives) was 875 µg/kg/day and the “Iron excreted, GROSS Urine” value ([1]; ip, acylated derivatives) was 174 µg/kg/day. For the same compound, the “Iron excreted, GROSS Stool, per μmole” value ([1]; ip) was 7.35 µg/kg/day/µmol, the “Iron excreted, GROSS Urine, per μmole” value ([1]; ip) was 1.46 µg/kg/day/µmol and the “Iron excreted, NET Stool, per μmole” value ([1]; ip) was 5.17 µg/kg/day/µmol. For the same compound, the “Iron excreted, NET TOTAL, per μmole” value ([1]; ip) was 6.12 µg/kg/day/µmol, the “Iron excreted, NET Urine, per μmole” value ([1]; ip) was 0.95 µg/kg/day/µmol and the “absorption and cleavage after oral administration” value (“absorption and cleavage” below) ([1]; oral) was “efficiently absorbed and subsequently cleaved”. The “Iron excreted, GROSS Stool” value ([1]; po) was 507 µg/kg/day, the “Iron excreted, GROSS Urine” value ([1]; po) was 91 µg/kg/day and the “Iron excreted, GROSS Stool, per μmole” value ([1]; po) was 4.26 µg/kg/day/µmol. The “Iron excreted, GROSS Urine, per μmole” value ([1]; po) was 0.76 µg/kg/day/µmol, the “Iron excreted, NET Stool, per μmole” value ([1]; po) was 2.08 µg/kg/day/µmol and the “Iron excreted, NET TOTAL, per μmole” value ([1]; po) was 2.33 µg/kg/day/µmol. The “Iron excreted, NET Urine, per μmole” value ([1]; po) was 0.25 µg/kg/day/µmol.
With `CC(=O)N(O)CCCCCNC(=O)CCC(=O)N(O)CCCCCNC(=O)CCC(=O)N(O)CCCCCN` [DFO, N'-[5-[[4-[[-5-(acetylhydroxamino)pentyl]amino]-1,4-dioxobutyl]hydroxyamino]pentyl]-N-(5-aminopentyl)-N-hydroxybutanediamide, reference compound] the “Iron excreted, NET Stool” value ([1]; ip, DFO (historic)) was 465 µg/kg/day, the “Iron excreted, NET Urine” value ([1]; ip, DFO (historic)) was 87 µg/kg/day and the “Iron excreted, GROSS Stool, per μmole” value ([1]; ip) was 5.60 µg/kg/day/µmol. The “Iron excreted, GROSS Urine, per μmole” value ([1]; ip) was 1.18 µg/kg/day/µmol, the “Iron excreted, NET Stool, per μmole” value ([1]; ip) was 3.42 µg/kg/day/µmol and the “Iron excreted, NET TOTAL, per μmole” value ([1]; ip) was 4.09 µg/kg/day/µmol. For the same compound, the “Iron excreted, NET Urine, per μmole” value ([1]; ip) was 0.67 µg/kg/day/µmol, the “Iron excreted, GROSS Stool” value ([1]; po) was 398 µg/kg/day and the “Iron excreted, GROSS Urine” value ([1]; po) was 98 µg/kg/day. For the same compound, the “Iron excreted, GROSS Stool, per μmole” value ([1]; po) was 2.60 µg/kg/day/µmol, the “Iron excreted, GROSS Urine, per μmole” value ([1]; po) was 0.64 µg/kg/day/µmol and the “Iron excreted, NET Stool, per μmole” value ([1]; po) was 0.03 µg/kg/day/µmol. The “Iron excreted, NET TOTAL, per μmole” value ([1]; po) was 0.06 µg/kg/day/µmol, the “Iron excreted, NET Urine, per μmole” value ([1]; po) was 0.03 µg/kg/day/µmol and the “Iron excreted, NET Stool” value ([1]; po) was 6 µg/kg/day. For the same compound, the “Iron excreted, NET Urine” value ([1]; po) was 5 µg/kg/day, the “Iron excreted, GROSS Stool” value [2, 5] was 857 µg/kg/day and the “Iron excreted, GROSS Urine” value [2, 5] was 180 µg/kg/day. For the same compound, the “effectiveness of oral relative to parenteral administration” value ([2]; oral vs parenteral, historical data) was “less than 10%” and the LD50 [3] was 800 mg/kg.
For `CCCCCCCCCCCCCC(=O)NCCCCCN(OC(=O)CC)C(=O)CCC(=O)NCCCCCN(OC(=O)CC)C(=O)CCC(=O)NCCCCCN(OC(=O)CC)C(C)=O` [MDP3, N-Myristoyl-O,O,O-tripropionyl deferoxamine], the “Iron excreted, GROSS Stool” value ([1]; ip, acylated derivatives) was 434 µg/kg/day, the “Iron excreted, GROSS Urine” value ([1]; ip, acylated derivatives) was 134 µg/kg/day and the “Iron excreted, GROSS Stool, per μmole” value ([1]; ip) was 4.06 µg/kg/day/µmol. The “Iron excreted, GROSS Urine, per μmole” value ([1]; ip) was 1.25 µg/kg/day/µmol, the “Iron excreted, NET Stool, per μmole” value ([1]; ip) was 1.88 µg/kg/day/µmol and the “Iron excreted, NET TOTAL, per μmole” value ([1]; ip) was 2.62 µg/kg/day/µmol. For the same compound, the “Iron excreted, NET Urine, per μmole” value ([1]; ip) was 0.74 µg/kg/day/µmol, the “increase of potency (absorption) on lengthening N-terminal amide from 3 to 14 carbons” value ([1]; oral, MDP3 vs PDP3) was “two-thirds” and the “Iron excreted, GROSS Stool” value ([1]; po) was 551 µg/kg/day. For the same compound, the “Iron excreted, GROSS Urine” value ([1]; po) was 88 µg/kg/day, the “Iron excreted, GROSS Stool, per μmole” value ([1]; po) was 5.15 µg/kg/day/µmol and the “Iron excreted, GROSS Urine, per μmole” value ([1]; po) was 0.82 µg/kg/day/µmol. The “Iron excreted, NET Stool, per μmole” value ([1]; po) was 2.97 µg/kg/day/µmol, the “Iron excreted, NET TOTAL, per μmole” value ([1]; po) was 3.28 µg/kg/day/µmol and the “Iron excreted, NET Urine, per μmole” value ([1]; po) was 0.31 µg/kg/day/µmol.
With `CCCCCCCC(=O)ON(CCCCCNC(=O)CCC(=O)N(CCCCCNC(=O)CCC(=O)N(CCCCCN(C(C)=O)C(=O)CCCCCCC)OC(=O)CCCCCCC)OC(=O)CCCCCCC)C(C)=O` [N-acetyl-N-octanoyl-O,O,O-trioctanoyldeferoxamine] the “increase of absorption on adding an N-acyl group” value ([1]; oral, vs N-acetyl-O,O,O-trioctanoyldeferoxamine, earlier unpublished data) was “about 50%”.
With `CCCCCCCC(=O)NCCCCCN(O)C(=O)CCC(=O)NCCCCCN(O)C(=O)CCC(=O)NCCCCCN(O)C(C)=O` [N-octanoyl-O,O,O-trihydrogendeferoxamine] the “solubility in water and ordinary organic solvents” value [4] was “sparingly soluble”.
In the case of `CCC(=O)NCCCCCN(OC(=O)CC)C(=O)CCC(=O)NCCCCCN(OC(=O)CC)C(=O)CCC(=O)NCCCCCN(OC(=O)CC)C(C)=O` [PDP3, N-Propionyl-O,O,O-tripropionyl deferoxamine], the “circulation time relative to DFO” value [1] is reported as “circulate for a longer period of time than DFO”, the “Iron excreted, GROSS Stool” value ([1]; ip, acylated derivatives) is reported as 933 µg/kg/day and the “Iron excreted, GROSS Urine” value ([1]; ip, acylated derivatives) is reported as 179 µg/kg/day. For the same compound, the “Iron excreted, GROSS Stool, per μmole” value ([1]; ip) was 7.29 µg/kg/day/µmol, the “Iron excreted, GROSS Urine, per μmole” value ([1]; ip) was 1.40 µg/kg/day/µmol and the “Iron excreted, NET Stool, per μmole” value ([1]; ip) was 5.11 µg/kg/day/µmol. The “Iron excreted, NET TOTAL, per μmole” value ([1]; ip) was 6.00 µg/kg/day/µmol, the “Iron excreted, NET Urine, per μmole” value ([1]; ip) was 0.89 µg/kg/day/µmol and the “absorption and cleavage” value ([1]; oral) was “efficiently absorbed and subsequently cleaved”. The “Iron excreted, GROSS Stool” value ([1]; po) was 496 µg/kg/day, the “Iron excreted, GROSS Urine” value ([1]; po) was 99 µg/kg/day and the “Iron excreted, GROSS Stool, per μmole” value ([1]; po) was 3.88 µg/kg/day/µmol. The “Iron excreted, GROSS Urine, per μmole” value ([1]; po) was 0.77 µg/kg/day/µmol, the “Iron excreted, NET Stool, per μmole” value ([1]; po) was 1.70 µg/kg/day/µmol and the “Iron excreted, NET TOTAL, per μmole” value ([1]; po) was 1.96 µg/kg/day/µmol. The “Iron excreted, NET Urine, per μmole” value ([1]; po) was 0.26 µg/kg/day/µmol.
For `CCCCC(=O)NCCCCCN(OC(=O)CCCC)C(=O)CCC(=O)NCCCCCN(OC(=O)CCCC)C(=O)CCC(=O)NCCCCCN(OC(=O)CCCC)C(C)=O` [VDV3, N-Valeroyl-O,O,O-trivaleroyl deferoxamine], the “relative activity among derivatives tested” value ([1]; in words) was “most active derivative tested”, the “circulation time relative to DFO” value [1] was “circulate for a longer period of time than DFO” and the “Iron excreted, GROSS Stool” value ([1]; ip, acylated derivatives) was 966 µg/kg/day. The “Iron excreted, GROSS Urine” value ([1]; ip, acylated derivatives) was 184 µg/kg/day, the “Iron excreted, GROSS Stool, per μmole” value ([1]; ip) was 8.63 µg/kg/day/µmol and the “Iron excreted, GROSS Urine, per μmole” value ([1]; ip) was 1.64 µg/kg/day/µmol. The “Iron excreted, NET Stool, per μmole” value ([1]; ip) was 6.45 µg/kg/day/µmol, the “Iron excreted, NET TOTAL, per μmole” value ([1]; ip) was 7.58 µg/kg/day/µmol and the “Iron excreted, NET Urine, per μmole” value ([1]; ip) was 1.13 µg/kg/day/µmol. The “absorption and cleavage” value ([1]; oral) was “efficiently absorbed and subsequently cleaved”, the “iron excretion relative to oral DFO” value ([1]; oral, vs DFO given orally) was “more than 60 times” and the “Iron excreted, GROSS Stool” value ([1]; po) was 599 µg/kg/day. The “Iron excreted, GROSS Urine” value ([1]; po) was 133 µg/kg/day, the “Iron excreted, GROSS Stool, per μmole” value ([1]; po) was 5.35 µg/kg/day/µmol and the “Iron excreted, GROSS Urine, per μmole” value ([1]; po) was 1.19 µg/kg/day/µmol. For the same compound, the “Iron excreted, NET Stool, per μmole” value ([1]; po) was 3.17 µg/kg/day/µmol, the “Iron excreted, NET TOTAL, per μmole” value ([1]; po) was 3.85 µg/kg/day/µmol and the “Iron excreted, NET Urine, per μmole” value ([1]; po) was 0.68 µg/kg/day/µmol. The systemic toxicity ([3]; in words) was “lack of systemic toxicity” and the LD50 [3] was 800 mg/kg.
